According to ChEMBL document CHEMBL1201862, “PubChem BioAssay data set” (2004):
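A five-concentration, 48-hour dose response in 96-well plates underlies each endpoint, interpolated linearly between surrounding concentrations. GI50: concentration for 50% inhibition of growth.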 Active and inactive are the calls of the source. Cut-off read from the data, not from the text of the source: active = GI50 up to about 1.1 µM and inactive = higher.

What was measured:
Assay in all cases: DTP human tumour cell line panel, 48 h
[1] = system: A498
[2] = system: HCT-15
[3] = system: HCC 2998
[4] = system: SNB-75
[5] = system: HT-29
[6] = system: EKVX
[7] = system: SF-295
[8] = system: MOLT-4
[9] = system: HOP-62
[10] = system: SNB-19
[11] = system: HL-60
[12] = system: KM-20L2
[13] = system: UACC-62
[14] = system: NCI-H460
[15] = system: NCI/ADR-RES
[16] = system: MCF7
[17] = system: Hs-578T
[18] = system: T47D
[19] = system: MDA-MB-435
[20] = system: BT-549

With `COc1ccc([C@H]2CC(=O)N3CCCC3N2)cc1` (stereo not given in full) the GI50 [1] was > 100 µM (inactive), the GI50 [2] was > 100 µM and the GI50 [3] was > 100 µM (inactive). The GI50 [4] was > 100 µM (inactive), the GI50 [5] was > 100 µM (inactive) and the GI50 [6] was > 100 µM (inactive). The GI50 [7] was > 100 µM (inactive), the GI50 [8] was > 100 µM (inactive) and the GI50 [9] was > 100 µM (inactive). For the same molecule, the GI50 [10] was > 100 µM (inactive), the GI50 [11] was > 100 µM (inactive) and the GI50 [12] was > 100 µM (inactive). For the same molecule, the GI50 [13] was > 100 µM (inactive) and the GI50 [14] was > 100 µM (inactive).
For `O=NN(CCCl)C(=O)N[C@H]1CC[C@@H](C(=O)O)CC1`, the GI50 [1] was > 100 µM (inactive), the GI50 [2] was > 100 µM and the GI50 [3] was > 100 µM (inactive). For the same molecule, the GI50 [4] was > 72.3 µM (inactive), the GI50 [5] was > 100 µM (inactive) and the GI50 [6] was > 100 µM (inactive). The GI50 [15] was > 100 µM (inactive), the GI50 [7] was 52.6 µM (inactive) and the GI50 [8] was 32.2 µM (inactive). The GI50 [9] was 83 µM (inactive), the GI50 [10] was 70 µM (inactive) and the GI50 [11] was 33.7 µM (inactive). The GI50 [16] was > 100 µM (inactive), the GI50 [12] was > 100 µM (inactive) and the GI50 [13] was 21.3 µM (inactive). For the same molecule, the GI50 [14] was 49.3 µM (inactive).
With `CC(C)(C)OC(=O)NC(CO)c1cccc(OCc2ccccc2)c1` (stereo not given) the GI50 [1] was > 87.9 µM (inactive), the GI50 [2] was > 100 µM and the GI50 [3] was > 100 µM (inactive). The GI50 [4] was > 100 µM (inactive), the GI50 [5] was > 100 µM (inactive) and the GI50 [6] was 8.39 µM (inactive). The GI50 [7] was 63.4 µM (inactive), the GI50 [8] was 30.3 µM (inactive) and the GI50 [9] was > 82.4 µM (inactive). For the same molecule, the GI50 [10] was > 81.7 µM (inactive), the GI50 [11] was 13.9 µM (inactive) and the GI50 [12] was > 100 µM (inactive). For the same molecule, the GI50 [13] was 33 µM (inactive) and the GI50 [14] was 35.3 µM (inactive).
In the case of `CCOC(=O)C1S/C(=N\c2ccc(Cl)c(Cl)c2)N=C1C` (stereo not given), the GI50 [1] is reported as 26 µM (inactive), the GI50 [2] is reported as 20.8 µM and the GI50 [3] is reported as > 100 µM (inactive). For the same molecule, the GI50 [4] was 29.9 µM (inactive), the GI50 [5] was 19.7 µM (inactive) and the GI50 [6] was > 100 µM (inactive). For the same molecule, the GI50 [7] was 29.7 µM (inactive), the GI50 [8] was 18.8 µM (inactive) and the GI50 [9] was 56.9 µM (inactive). The GI50 [10] was 45.6 µM (inactive), the GI50 [11] was 20.4 µM (inactive) and the GI50 [12] was 20.9 µM (inactive). For the same molecule, the GI50 [13] was 96.8 µM (inactive) and the GI50 [14] was 49.8 µM (inactive).
With `Cn1cnc([N+](=O)[O-])c1Sc1nc2cccnc2[nH]1` the GI50 [1] was > 100 µM (inactive), the GI50 [2] was > 100 µM and the GI50 [3] was > 100 µM (inactive). For the same molecule, the GI50 [4] was > 100 µM (inactive), the GI50 [5] was > 100 µM (inactive) and the GI50 [6] was 28.5 µM (inactive). The GI50 [7] was 37.7 µM (inactive), the GI50 [8] was 29.9 µM (inactive) and the GI50 [9] was > 100 µM (inactive). The GI50 [10] was > 100 µM (inactive), the GI50 [11] was 12.5 µM (inactive) and the GI50 [12] was > 100 µM (inactive). The GI50 [13] was 67.6 µM (inactive) and the GI50 [14] was > 100 µM (inactive).
With `O=C(c1ccccc1)C(c1ccccc1)C1(O)C(=O)Nc2c(Cl)ccc(Cl)c21` (stereo not given) the GI50 [1] was 25.3 µM (inactive), the GI50 [2] was 18.4 µM and the GI50 [3] was 30.8 µM (inactive). The GI50 [4] was 16.8 µM (inactive), the GI50 [5] was 19.9 µM (inactive) and the GI50 [6] was 18.2 µM (inactive). The GI50 [7] was 16.5 µM (inactive), the GI50 [8] was 15.9 µM (inactive) and the GI50 [9] was 21.4 µM (inactive). The GI50 [10] was 30.3 µM (inactive), the GI50 [11] was 15.6 µM (inactive) and the GI50 [12] was 34.2 µM (inactive). The GI50 [13] was 15.6 µM (inactive) and the GI50 [14] was 14.3 µM (inactive).
With `Cc1nn2c(=O)n(-c3cccc(-n4nnc5c(-c6ccccc6)c(C)nn5c4=O)c3C)nnc2c1-c1ccccc1` the GI50 [1] was 83.6 µM (inactive), the GI50 [2] was 16.1 µM and the GI50 [3] was 20.5 µM (inactive). For the same molecule, the GI50 [4] was 37.4 µM (inactive), the GI50 [5] was 35.7 µM (inactive) and the GI50 [6] was 38.9 µM (inactive). The GI50 [7] was 44.9 µM (inactive), the GI50 [8] was 11.1 µM (inactive) and the GI50 [9] was 97.7 µM (inactive). For the same molecule, the GI50 [10] was > 100 µM (inactive), the GI50 [11] was 18.2 µM (inactive) and the GI50 [12] was 19.5 µM (inactive). For the same molecule, the GI50 [13] was 46.1 µM (inactive) and the GI50 [14] was 18.5 µM (inactive).
For `C/C(CN1C(=O)c2ccccc2C1=O)=N\NS(C)(=O)=O`, the GI50 [1] was > 100 µM (inactive), the GI50 [2] was > 100 µM and the GI50 [3] was > 100 µM (inactive). For the same molecule, the GI50 [4] was > 100 µM (inactive), the GI50 [5] was > 100 µM (inactive) and the GI50 [6] was > 100 µM (inactive). The GI50 [7] was > 100 µM (inactive), the GI50 [8] was > 100 µM (inactive) and the GI50 [9] was > 100 µM (inactive). The GI50 [10] was > 100 µM (inactive), the GI50 [11] was > 100 µM (inactive) and the GI50 [12] was > 100 µM (inactive). The GI50 [13] was > 100 µM (inactive) and the GI50 [14] was > 100 µM (inactive).
In the case of `CCOC(=O)C(C)(c1c(C)[nH]c2ccccc12)c1c(C)[nH]c2ccccc12`, the GI50 [1] is reported as 17.8 µM (inactive), the GI50 [2] is reported as 15 µM and the GI50 [3] is reported as 23.3 µM (inactive). For the same molecule, the GI50 [4] was 17.6 µM (inactive), the GI50 [5] was 16.7 µM (inactive) and the GI50 [6] was 25.5 µM (inactive). For the same molecule, the GI50 [7] was 14 µM (inactive), the GI50 [8] was 13.6 µM (inactive) and the GI50 [9] was 18.9 µM (inactive). For the same molecule, the GI50 [11] was 12.1 µM (inactive), the GI50 [12] was 16.4 µM (inactive) and the GI50 [13] was 14.2 µM (inactive). For the same molecule, the GI50 [14] was 17.6 µM (inactive).
`Oc1ncnc2c1nnn2CCCCCCCCCCCCn1nnc2c(O)ncnc21` was tested, and the GI50 [17] was 18.9 µM (inactive), the GI50 [18] was 0.641 µM (active) and the GI50 [1] was 25.2 µM (inactive). For the same molecule, the GI50 [2] was > 100 µM, the GI50 [3] was > 78.7 µM (inactive) and the GI50 [4] was > 40.9 µM (inactive). For the same molecule, the GI50 [19] was > 100 µM (inactive), the GI50 [5] was > 100 µM (inactive) and the GI50 [6] was 21.3 µM (inactive). The GI50 [20] was 28.8 µM (inactive), the GI50 [15] was > 100 µM (inactive) and the GI50 [7] was 14.5 µM (inactive). The GI50 [8] was > 100 µM (inactive), the GI50 [9] was 21.7 µM (inactive) and the GI50 [10] was 20.2 µM (inactive). For the same molecule, the GI50 [11] was > 45.4 µM (inactive), the GI50 [16] was 98.6 µM (inactive) and the GI50 [12] was > 100 µM (inactive). For the same molecule, the GI50 [13] was 36.9 µM (inactive) and the GI50 [14] was 51.8 µM (inactive).
For `COC(=O)N1[C@H]2Cc3c(OC)c(C)c(OC)c(OC)c3[C@@H]1/C(=C\c1cc(OC)c(OC)c(C)c1OC)N(Cc1ccccc1)C2=O`, the GI50 [1] was > 100 µM (inactive), the GI50 [3] was 8.51 µM (inactive) and the GI50 [4] was 67.5 µM (inactive). For the same molecule, the GI50 [5] was 45.1 µM (inactive), the GI50 [6] was 37.7 µM (inactive) and the GI50 [7] was 39 µM (inactive). For the same molecule, the GI50 [8] was 16.1 µM (inactive), the GI50 [9] was 74.1 µM (inactive) and the GI50 [10] was 58.9 µM (inactive). The GI50 [11] was 5.52 µM (inactive), the GI50 [12] was 46.2 µM (inactive) and the GI50 [13] was 56.9 µM (inactive). For the same molecule, the GI50 [14] was 13.2 µM (inactive).
